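48-hour exposure; five concentrations; linearly interpolated endpoints. GI50 = concentration required for 50% inhibition of growth.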 Active and inactive are the calls of the source. No stated cut-off is given here; in the data, active = GI50 up to about 1.1 µM and inactive = higher.
Experiments:
Experiment in all cases: NCI-60 cell line screen, 48 h
[1] = tested on: SK-OV-3
[2] = tested on: Hs-578T
[3] = tested on: CAKI-1
[4] = tested on: SN12C
[5] = tested on: K562
[6] = tested on: DU-145
[7] = tested on: SW-620
[8] = tested on: MOLT-4
[9] = tested on: NCI-H226
[10] = tested on: OVCAR-3
[11] = tested on: 786-0
[12] = tested on: SNB-19
[13] = tested on: MDA-N
[14] = tested on: SK-MEL-28
[15] = tested on: HOP-62
[16] = tested on: SK-MEL-5
[17] = tested on: BT-549
[18] = tested on: HCT-116
[19] = tested on: TK-10
[20] = tested on: HL-60

Measured: GI50

ON(CCc1ccccn1)Cc1ccccc1
inactive: [1] > 100 µM | [2] > 100 µM | [3] > 100 µM | [4] > 100 µM | [5] 31.7 µM | [6] > 100 µM | [7] > 100 µM | [8] > 100 µM | [9] > 100 µM | [10] > 100 µM | [11] > 100 µM | [12] > 100 µM | [13] > 100 µM | [14] > 100 µM | [15] > 100 µM | [16] > 100 µM | [17] > 100 µM | [18] > 100 µM | [19] > 100 µM

O=C(O[C@H](/C=C/c1ccccc1)P1(=O)N(Cc2ccccc2)[C@H]2CCCC[C@@H]2N1Cc1ccccc1)c1ccccc1
inactive: [1] 5.85 µM | [2] 9.31 µM | [3] 2.17 µM | [4] 3.15 µM | [5] 4.2 µM | [20] 2.95 µM | [7] 3.72 µM | [9] 2.33 µM | [10] 3.94 µM | [11] 3.7 µM | [12] 5.31 µM | [13] 3.52 µM | [14] 8.83 µM | [15] 5.51 µM | [16] 1.87 µM | [17] 5.56 µM | [18] 2.79 µM | [19] > 100 µM

CC1=C(C(=O)NC2CCCCC2)CC(C(=O)NC2CCCCC2)=C(C)N1
inactive: [1] > 100 µM | [2] 24.9 µM | [3] > 100 µM | [4] > 100 µM | [5] 57.4 µM | [6] > 100 µM | [20] 71.6 µM | [7] > 100 µM | [8] > 100 µM | [10] > 100 µM | [11] > 100 µM | [12] > 100 µM | [13] > 100 µM | [14] > 100 µM | [15] > 100 µM | [16] > 100 µM | [17] > 100 µM | [18] > 100 µM | [19] 39.2 µM

O=C(CCCl)NN=C1NCCCN1
inactive: [1] > 100 µM | [2] > 100 µM | [4] > 100 µM | [5] > 100 µM | [6] > 100 µM | [20] > 100 µM | [7] > 100 µM | [8] > 100 µM | [9] > 100 µM | [10] > 100 µM | [11] > 100 µM | [12] > 100 µM | [13] > 100 µM | [14] > 100 µM | [15] > 100 µM | [16] > 100 µM | [17] > 100 µM | [18] > 100 µM | [19] > 100 µM

CCOC(=O)C1=COC(C)(C)CC1=O
inactive: [1] > 100 µM | [2] > 100 µM | [3] > 100 µM | [4] > 100 µM | [5] > 100 µM | [6] > 100 µM | [7] > 100 µM | [8] > 100 µM | [10] > 100 µM | [11] > 100 µM | [12] > 100 µM | [13] > 100 µM | [14] > 100 µM | [15] > 100 µM | [16] > 100 µM | [17] > 100 µM | [18] > 100 µM | [19] > 100 µM

Cc1ccc2c(c1C)C(=O)/C(=C/c1ccccc1C(=O)O)C2
inactive: [2] > 100 µM | [3] > 100 µM | [4] > 100 µM | [5] > 100 µM | [6] > 100 µM | [20] > 100 µM | [7] > 100 µM | [8] > 100 µM | [9] > 100 µM | [10] > 100 µM | [11] > 100 µM | [12] > 100 µM | [13] > 100 µM | [14] > 100 µM | [15] > 100 µM | [16] 42.3 µM | [17] 20.7 µM | [18] > 100 µM | [19] > 100 µM

O=C(CCCCCCCCC(=O)N1C(=O)CC(=O)N(c2ccc(Cl)cc2)C1=S)N1C(=O)CC(=O)N(c2ccc(Cl)cc2)C1=S
inactive: [1] 73.3 µM | [2] > 100 µM | [3] > 100 µM | [4] > 100 µM | [5] 17.5 µM | [6] > 100 µM | [7] > 100 µM | [8] 19.8 µM | [9] > 100 µM | [10] 51.3 µM | [11] 67.9 µM | [12] 74.1 µM | [13] 38.6 µM | [14] 70.3 µM | [15] 80.9 µM | [16] 29.9 µM | [17] 67 µM | [18] 48.5 µM | [19] > 100 µM

CC(C)N(C(=O)C12C3(C(=O)OC(C)(C)C)C4C5(C#N)C3C1(C(=O)OC(C)(C)C)C5C42C(=O)OC(C)(C)C)C(C)C (stereo unspecified)
inactive: [2] 28.7 µM | [3] 37.3 µM | [4] > 100 µM | [5] 34.6 µM | [6] > 100 µM | [20] 20.1 µM | [7] 24.9 µM | [8] 13.6 µM | [10] 47.8 µM | [11] 34.6 µM | [12] > 100 µM | [13] 19.1 µM | [14] 29.4 µM | [15] > 100 µM | [16] 60.1 µM | [17] > 100 µM | [18] 19.8 µM | [19] > 100 µM

CC#CCCCC1(C)CCNC1=S (stereo unspecified)
inactive: [1] > 10 µM | [2] > 10 µM | [4] > 10 µM | [5] > 10 µM | [6] > 10 µM | [20] > 10 µM | [7] > 10 µM | [8] > 10 µM | [9] > 10 µM | [10] > 10 µM | [11] > 10 µM | [12] > 10 µM | [13] > 10 µM | [17] > 10 µM | [19] > 10 µM

CC(C)=CCC/C(C)=C/CC/C(C)=C/CC(CO)N(C)CC/C=C(\C)CCC=C(C)C (stereo unspecified)
inactive: [1] 14.9 µM | [2] 5.31 µM | [3] 6.64 µM | [4] 4.54 µM | [5] 1.6 µM | [6] 11.5 µM | [7] 3.62 µM | [8] 2.39 µM | [9] 13.7 µM | [10] 14.2 µM | [11] 1.91 µM | [12] 8.91 µM | [13] 3.43 µM | [14] 5.87 µM | [15] 4.32 µM | [16] 8.39 µM | [17] 14.1 µM | [18] 2.15 µM | [19] 9.53 µM

CN(C)CCCN1C(=O)N(CCCN(C)C)c2c3cc(O)ccc3nc3c([N+](=O)[O-])ccc1c23
inactive: [1] 32.7 µM | [2] 21.5 µM | [3] 23.3 µM | [4] 20 µM | [5] 4.99 µM | [6] 27.9 µM | [7] 16 µM | [9] 23.2 µM | [10] 26.1 µM | [11] 8.13 µM | [12] 10.9 µM | [13] 37.3 µM | [14] 43.3 µM | [15] 17.2 µM | [16] 15.5 µM | [17] 17.6 µM | [18] 14.1 µM | [19] 21.3 µM
